Data taken from the supplement of paper PMC10307832.

Experiments:
Experiment in all cases: relative viability (nuclei count vs DMSO), 5 days (fraction); higher = more cells survive
NCI-H727 = tested on: NCI-H727
How it was run: (§1)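 For relative viability, nuclei counts in treated wells were divided by those in vehicle wells. Lung cancer cell lines had been pin-tool dosed in 1536-well plates the day after seeding and cultured for 5 days, then fixed and stained in one step (final 0.05% Triton X-100, 1% formaldehyde, 1 ug/ml Hoechst) and imaged at 4×. Doses were one drug alone or a fixed anchor-drug dose plus five library-drug doses (not always all listed) in √10 steps, and values are duplicate-plate medians.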

LOU-NH91 = tested on: LOU-NH91
How it was run: as §1

NCI-H2170 = tested on: NCI-H2170
How it was run: as §1

NCI-H460 = tested on: NCI-H460
How it was run: as §1

ChaGo-K-1 = tested on: ChaGo-K-1
How it was run: as §1

EMC-BAC-2 = tested on: EMC-BAC-2
How it was run: as §1

NCI-H2126 = tested on: NCI-H2126
How it was run: as §1

NCI-H647 = tested on: NCI-H647
How it was run: as §1

NCI-H2347 = tested on: NCI-H2347
How it was run: as §1

NCI-H2405 = tested on: NCI-H2405
How it was run: as §1

NCI-H650 = tested on: NCI-H650
How it was run: as §1

SMILES: O=C(O)CCCCC(CCSCc1ccccc1)SCc1ccccc1 (stereo not given) [CPI-613] + C[C@@H](Oc1cc(-c2cnn(C3CCNCC3)c2)cnc1N)c1c(Cl)ccc(F)c1Cl [Crizotinib] (partner 1 µM)
- relative viability (NCI-H727; first compound 5 µM): 0.875
- relative viability (NCI-H727; first compound 15.81 µM): 0.743
- relative viability (NCI-H727; first compound 50 µM): 0.797
- relative viability (NCI-H727; first compound 158.11 µM): 0.244
- relative viability (NCI-H727; first compound 500 µM): 0.0831
- relative viability (LOU-NH91; first compound 5 µM): 0.801
- relative viability (LOU-NH91; first compound 15.81 µM): 0.692
- relative viability (LOU-NH91; first compound 50 µM): 0.765
- relative viability (LOU-NH91; first compound 158.11 µM): 0.71
- relative viability (LOU-NH91; first compound 500 µM): 0.722
- relative viability (NCI-H2170; first compound 5 µM): 1.15
- relative viability (NCI-H2170; first compound 15.81 µM): 1.18
- relative viability (NCI-H2170; first compound 50 µM): 1.13
- relative viability (NCI-H2170; first compound 158.11 µM): 0.746
- relative viability (NCI-H2170; first compound 500 µM): 0.335
- relative viability (NCI-H460; first compound 5 µM): 0.889
- relative viability (NCI-H460; first compound 15.81 µM): 0.892
- relative viability (NCI-H460; first compound 50 µM): 0.728
- relative viability (NCI-H460; first compound 158.11 µM): 0.115
- relative viability (NCI-H460; first compound 500 µM): 0.0085
- relative viability (ChaGo-K-1; first compound 5 µM): 1.14
- relative viability (ChaGo-K-1; first compound 15.81 µM): 1.05
- relative viability (ChaGo-K-1; first compound 50 µM): 0.992
- relative viability (ChaGo-K-1; first compound 158.11 µM): 1.04
- relative viability (ChaGo-K-1; first compound 500 µM): 0.813
- relative viability (EMC-BAC-2; first compound 5 µM): 0.753
- relative viability (EMC-BAC-2; first compound 15.81 µM): 0.708
- relative viability (EMC-BAC-2; first compound 50 µM): 0.83
- relative viability (EMC-BAC-2; first compound 158.11 µM): 0.494
- relative viability (EMC-BAC-2; first compound 500 µM): 0.267
- relative viability (NCI-H2126; first compound 5 µM): 1.01
- relative viability (NCI-H2126; first compound 15.81 µM): 0.999
- relative viability (NCI-H2126; first compound 50 µM): 0.942
- relative viability (NCI-H2126; first compound 158.11 µM): 0.706
- relative viability (NCI-H2126; first compound 500 µM): 0.23
- relative viability (NCI-H647; first compound 5 µM): 0.853
- relative viability (NCI-H647; first compound 15.81 µM): 1.01
- relative viability (NCI-H647; first compound 50 µM): 0.769
- relative viability (NCI-H647; first compound 158.11 µM): 0.0681
- relative viability (NCI-H647; first compound 500 µM): 0.0175
- relative viability (NCI-H2347; first compound 5 µM): 0.645
- relative viability (NCI-H2347; first compound 15.81 µM): 0.555
- relative viability (NCI-H2347; first compound 50 µM): 0.695
- relative viability (NCI-H2347; first compound 158.11 µM): 0.669
- relative viability (NCI-H2347; first compound 500 µM): 0.55
- relative viability (NCI-H2405; first compound 5 µM): 0.855
- relative viability (NCI-H2405; first compound 15.81 µM): 0.842
- relative viability (NCI-H2405; first compound 50 µM): 0.825
- relative viability (NCI-H2405; first compound 158.11 µM): 0.828
- relative viability (NCI-H2405; first compound 500 µM): 0.829
- relative viability (NCI-H650; first compound 5 µM): 0.665
- relative viability (NCI-H650; first compound 15.81 µM): 0.703
- relative viability (NCI-H650; first compound 50 µM): 0.677
- relative viability (NCI-H650; first compound 158.11 µM): 0.626
- relative viability (NCI-H650; first compound 500 µM): 0.649
